Assays:
[1] = species: Ovis aries; assay: Inhibition of sheep brain tubulin polymerization at 100 uM by DAPI staining-based fluorimetric method relative to control
[2] = Cytotoxicity against human MDA-MB-435 cells assessed as growth inhibition after 48 hrs by SRB assay; type: functional; conditions: MDA-MB-435, 48 h
[3] = Cytotoxicity against human K562 cells assessed as growth inhibition after 48 hrs by SRB assay; type: functional; conditions: K562, 48 h
[4] = Cytotoxicity against human HCT116 cells assessed as growth inhibition after 48 hrs by SRB assay; type: functional; conditions: HCT-116, 48 h
[5] = Inhibition of sheep brain tubulin polymerization by DAPI staining-based fluorimetric method; design: species or system Ovis aries
[6] = Cytotoxicity against human NCI-H460 cells assessed as growth inhibition after 48 hrs by SRB assay; type: functional; conditions: NCI-H460, 48 h
[7] = Cytotoxicity against human SF295 cells assessed as growth inhibition after 48 hrs by SRB assay; type: functional; conditions: SF-295, 48 h
[8] = Cytotoxicity against human A498 cells assessed as growth inhibition after 48 hrs by SRB assay; type: functional; conditions: A498, 48 h
[9] = Cytotoxicity against human OVCAR3 cells assessed as growth inhibition after 48 hrs by SRB assay; type: functional; conditions: OVCAR-3, 48 h
[10] = Cytotoxicity against human DU145 cells assessed as growth inhibition after 48 hrs by SRB assay; type: functional; conditions: DU-145, 48 h

## COc1ccc(Cn2c3ccccc3c(=O)c3ccccc32)cc1F
[1]
  inhibition: 13%

## COc1ccc(/C=C\c2cc(OC)c(OC)c(OC)c2)cc1O [COMBRETASTATIN A4]
[2]
  GI50: 3 nM
[3]
  GI50: 4 nM
[4]
  GI50: 2 nM

## COc1ccc(C(=O)N2c3ccccc3Sc3ccccc32)c(C(F)(F)F)c1
[5]
  IC50: 11900 nM
[1]
  inhibition: 80%

## COc1ccc(CN2c3ccccc3Sc3cccnc32)cc1F
[5]
  IC50: 10500 nM
[1]
  inhibition: 72%

## COc1cc([C@@H]2c3cc4c(cc3C[C@H]3COC(=O)[C@@H]32)OCO4)cc(OC)c1OC [DESOXYPODOPHYLLOTOXIN]
[5]
  IC50: 2000 nM
[1]
  inhibition: 100%

## COc1ccc(C(=O)c2cc(OC)c(OC)c(OC)c2)cc1O [PHENSTATIN]
[6]
  GI50: 18 nM
[7]
  GI50: 163 nM
[8]
  GI50: 1190 nM
[9]
  GI50: 7 nM
[5]
  IC50: 3400 nM
[10]
  GI50: 34 nM
[1]
  inhibition: 99%

## COc1ccc(CN2c3ccccc3Oc3ccccc32)c(C(F)(F)F)c1
[1]
  inhibition: 44%
